{
  "source": "ChEMBL document CHEMBL4011612",
  "about": "“4-Anilino-pyrimidine, novel aldosterone synthase (CYP11B2) inhibitors bearing pyrimidine structures” (Bioorg Med Chem Lett, 2017)",
  "data": [
    {"target": "T1, Cytochrome P450 11B2, mitochondrial (Mus musculus, UniProt P15539)", "T1 sequence (P15539 whole entry)": "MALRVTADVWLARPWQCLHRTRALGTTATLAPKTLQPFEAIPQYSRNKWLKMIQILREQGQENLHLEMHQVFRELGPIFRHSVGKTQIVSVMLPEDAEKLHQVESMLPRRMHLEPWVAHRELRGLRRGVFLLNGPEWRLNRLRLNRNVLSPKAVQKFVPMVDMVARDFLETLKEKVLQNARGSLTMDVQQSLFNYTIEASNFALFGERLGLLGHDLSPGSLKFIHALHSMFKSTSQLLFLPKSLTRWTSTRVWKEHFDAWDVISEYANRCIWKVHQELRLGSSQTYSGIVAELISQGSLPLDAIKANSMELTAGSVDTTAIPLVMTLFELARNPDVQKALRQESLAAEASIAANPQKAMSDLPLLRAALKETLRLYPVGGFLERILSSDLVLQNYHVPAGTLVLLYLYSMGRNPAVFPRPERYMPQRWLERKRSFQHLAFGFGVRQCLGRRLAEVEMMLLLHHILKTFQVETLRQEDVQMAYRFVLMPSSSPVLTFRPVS", "units": {"IC50": "µM"}, "description": "Inhibition of mouse CYP11B2 expressed in HEK293 cells using deoxycorticosterone as substrate pretreated for 1 hr followed by substrate addition after 2 hrs by HTRF assay", "values": [
      {"smiles": "CS(=O)(=O)N1CCC(C(=O)c2cncnc2Nc2ccc(F)cc2)CC1", "IC50": 5.1},
      {"smiles": "CC(C)C(O)(c1cncnc1Nc1ccc(F)cc1)C1CCN(S(C)(=O)=O)CC1", "note": "(racemic)", "IC50": 0.021},
      {"smiles": "CS(=O)(=O)N1CCC(C(O)c2cncnc2Sc2ccc(F)cc2)CC1", "note": "(racemic)", "IC50": 0.257},
      {"smiles": "Cc1ccc(Nc2ncncc2C(O)C2CCN(S(C)(=O)=O)CC2)cc1", "note": "(racemic)", "IC50": 1.89},
      {"smiles": "CS(=O)(=O)N1CCC(C(O)c2cncnc2Nc2ccc(F)cc2)CC1", "note": "(racemic)", "IC50": "0.3 to 0.301"},
      {"smiles": "CS(=O)(=O)N1CCC(C(O)(c2cncnc2Nc2ccc(F)cc2)C(F)(F)F)CC1", "note": "(single isomer, unassigned; isomer 1)", "IC50": 0.00073}
    ]},
    {"tested_on": "not listed separately", "test": "Inhibition of monkey CYP11B2", "parameters": "species or system Macaca mulatta", "units": {"IC50": "µM"}, "values": [
      {"smiles": "CS(=O)(=O)N1CCC(C(O)c2cncnc2Nc2ccc(F)cc2)CC1", "note": "(racemic)", "IC50": 0.0027}
    ]},
    {"target": "T2, Cytochrome P450 11B2, mitochondrial (Rattus norvegicus, UniProt P30099)", "T2 sequence (P30099 whole entry)": "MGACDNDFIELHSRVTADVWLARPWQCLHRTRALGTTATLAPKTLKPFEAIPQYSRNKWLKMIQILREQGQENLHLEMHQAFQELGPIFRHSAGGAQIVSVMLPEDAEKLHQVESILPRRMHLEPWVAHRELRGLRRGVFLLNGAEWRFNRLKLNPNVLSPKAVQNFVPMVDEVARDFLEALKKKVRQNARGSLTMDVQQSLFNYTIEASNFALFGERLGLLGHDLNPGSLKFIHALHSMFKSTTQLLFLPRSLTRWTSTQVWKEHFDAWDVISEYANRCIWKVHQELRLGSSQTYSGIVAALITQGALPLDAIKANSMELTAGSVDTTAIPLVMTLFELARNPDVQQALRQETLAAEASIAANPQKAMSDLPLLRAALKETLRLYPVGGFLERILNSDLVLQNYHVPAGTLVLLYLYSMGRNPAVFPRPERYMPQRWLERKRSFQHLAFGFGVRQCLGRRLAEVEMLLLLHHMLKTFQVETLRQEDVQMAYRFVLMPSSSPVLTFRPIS", "test": "Inhibition of rat CYP11B2", "units": {"IC50": "µM"}, "values": [
      {"smiles": "CS(=O)(=O)N1CCC(C(O)c2cncnc2Nc2ccc(F)cc2)CC1", "note": "(racemic)", "IC50": 0.3}
    ]},
    {"target": "T3, Cytochrome P450 11B2, mitochondrial (Homo sapiens, UniProt P19099)", "T3 sequence (P19099 whole entry)": "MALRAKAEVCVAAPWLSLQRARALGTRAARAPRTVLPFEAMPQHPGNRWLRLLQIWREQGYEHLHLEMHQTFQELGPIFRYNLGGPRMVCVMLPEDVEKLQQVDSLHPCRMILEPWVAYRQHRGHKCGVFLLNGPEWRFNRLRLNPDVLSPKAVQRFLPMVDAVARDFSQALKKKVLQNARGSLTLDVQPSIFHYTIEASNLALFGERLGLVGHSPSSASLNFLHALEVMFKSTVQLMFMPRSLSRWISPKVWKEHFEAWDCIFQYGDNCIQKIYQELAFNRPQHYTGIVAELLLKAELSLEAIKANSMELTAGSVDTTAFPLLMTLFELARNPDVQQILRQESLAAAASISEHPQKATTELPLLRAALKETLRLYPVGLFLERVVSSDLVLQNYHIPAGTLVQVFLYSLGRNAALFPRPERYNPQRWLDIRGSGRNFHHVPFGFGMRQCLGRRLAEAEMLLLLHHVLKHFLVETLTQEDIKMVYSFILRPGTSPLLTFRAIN", "units": {"IC50": "µM"}, "description": "Inhibition of human CYP11B2 expressed in HEK293A cells using deoxycorticosterone as substrate pretreated for 1 hr followed by substrate addition measured after 1 hr by HTRF assay", "values": [
      {"smiles": "CS(=O)(=O)N1CCC(C(=O)c2cncnc2Nc2ccc(F)cc2)CC1", "IC50": 0.109},
      {"smiles": "CC(C)C(O)(c1cncnc1Nc1ccc(F)cc1)C1CCN(S(C)(=O)=O)CC1", "note": "(racemic)", "IC50": 0.005},
      {"smiles": "CS(=O)(=O)N1CCC(C(O)c2cncnc2Sc2ccc(F)cc2)CC1", "note": "(racemic)", "IC50": 0.0004},
      {"smiles": "Cc1ccc(Nc2ncncc2C(O)C2CCN(S(C)(=O)=O)CC2)cc1", "note": "(racemic)", "IC50": 0.008},
      {"smiles": "CS(=O)(=O)N1CCC(C(O)c2cncnc2Nc2ccc(F)cc2)CC1", "note": "(racemic)", "IC50": "0.003 to 0.0031"},
      {"smiles": "CS(=O)(=O)N1CCC(C(O)(c2cncnc2Nc2ccc(F)cc2)C(F)(F)F)CC1", "note": "(single isomer, unassigned; isomer 1)", "IC50": 0.00073}
    ]},
    {"target": "T4, Cytochrome P450 11B1, mitochondrial (Homo sapiens, UniProt P15538)", "T4 sequence (P15538 whole entry)": "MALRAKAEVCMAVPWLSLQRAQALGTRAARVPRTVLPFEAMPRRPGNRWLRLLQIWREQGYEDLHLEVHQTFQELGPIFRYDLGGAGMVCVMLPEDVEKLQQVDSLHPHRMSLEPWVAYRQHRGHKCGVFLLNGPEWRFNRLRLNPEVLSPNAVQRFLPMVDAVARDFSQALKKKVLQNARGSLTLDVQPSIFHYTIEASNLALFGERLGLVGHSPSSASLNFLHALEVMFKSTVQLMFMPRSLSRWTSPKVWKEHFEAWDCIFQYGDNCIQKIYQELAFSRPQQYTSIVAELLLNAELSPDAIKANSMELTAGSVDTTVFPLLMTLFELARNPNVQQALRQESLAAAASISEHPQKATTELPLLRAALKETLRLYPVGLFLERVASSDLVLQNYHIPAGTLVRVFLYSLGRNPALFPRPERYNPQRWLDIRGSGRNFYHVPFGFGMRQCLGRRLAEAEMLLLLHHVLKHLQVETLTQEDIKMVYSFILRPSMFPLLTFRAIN", "test": "Inhibition of human CYP11B1 expressed in HEK293A cells", "assay_type": "ADME, cell-based, HEK293", "units": {"IC50": "µM"}, "values": [
      {"smiles": "CC(C)C(O)(c1cncnc1Nc1ccc(F)cc1)C1CCN(S(C)(=O)=O)CC1", "note": "(racemic)", "IC50": 0.013},
      {"smiles": "CS(=O)(=O)N1CCC(C(O)c2cncnc2Sc2ccc(F)cc2)CC1", "note": "(racemic)", "IC50": 0.0006},
      {"smiles": "Cc1ccc(Nc2ncncc2C(O)C2CCN(S(C)(=O)=O)CC2)cc1", "note": "(racemic)", "IC50": 0.019},
      {"smiles": "CS(=O)(=O)N1CCC(C(O)c2cncnc2Nc2ccc(F)cc2)CC1", "note": "(racemic)", "IC50": 0.01},
      {"smiles": "CS(=O)(=O)N1CCC(C(O)(c2cncnc2Nc2ccc(F)cc2)C(F)(F)F)CC1", "note": "(single isomer, unassigned; isomer 1)", "IC50": 0.0011}
    ]}
  ]
}
